PMC9287337 (Scientific Reports, 2022)

Tests used:
C2C12 cells [1] = experiment: RealTime-Glo MT cell viability assay; assay type: cell-based, mouse; details: C2C12, 24 h, Supplemental Fig. S3
Description: To first determine how these novel compounds effect the health of C2C12 cells and to establish the range of subtoxic concentrations for future studies, cell viability assays were carried out. Serum-starved C2C12 cells were exposed to increasing concentrations (0.01–1000 µM) of SY-LB-35 and SY-LB-57 for 24 h. Exposure to Triton X-100 (125 µM) is toxic to cells and was used as a negative control for cell viability. Following the 24-h exposure period, the MT Cell viability substrate was added to the cultures. Only viable cells can reduce the substrate and, thereby, generate a luminescent signal. Any decrease in luminescence was considered an indication of cell death or toxicity.
C2C12 cells (100 µL) were seeded in a 96-well plate at 5 × 10^5 cells/mL and incubated overnight in complete growth media to achieve 80% confluency followed by serum-starvation for 16–18 h.
(§1) Next, reagents from the RealTime-Glo™ MT Cell Viability Assay Kit (Promega, Madison, WI, USA) were diluted in SS medium and used according to manufacturer’s protocol. Cellular luminescence was measured using the FilterMax F5 Multi-mode Microplate Reader (Molecular Devices, San Jose, CA, USA). Data from three independent experiments with individual experiments carried out in triplicate was determined and reported as a percentage of control.

C2C12 cells [2] = experiment: Cell viability assay in presence or absence of Dorsomorphin; assay type: cell-based, mouse; details: 10 µM inhibitor, 24 h
Description: To resolve whether the SY-LB-35 or SY-LB-57 compound requires type I BMP receptor activity for the induction of cell viability in C2C12 cells, cell viability assays were carried out in the presence or absence of 10 µM DM.
C2C12 cells (100 µL) were seeded in a 96-well plate at 5 × 10^5 cells/mL and incubated overnight in complete growth media to achieve 80% confluency followed by serum-starvation for 16–18 h. […] For BMP receptor inhibition, cell viability assays were carried out in presence or absence of Dorsomorphin (DM; 10 µM; Sigma Aldrich, St. Louis, MO, USA), a non-selective inhibitor of type I BMP receptor activity.
as §1

[3] = test system: type I BMP receptor-dependent p-Smad; experiment: Western blot of p-Smad in presence or absence of Dorsomorphin; assay type: cell-based, mouse; details: 10 µM inhibitor, compounds 1 µM, 30 min
Description: Total whole cell lysates were prepared and used for Western blot analysis of Smad phosphorylation using anti-p-Smad antibodies.
C2C12 cells (3 mL) were seeded into 35 mm dishes at 7.5 × 10^4 cells/mL in complete growth medium, incubated to reach 80% confluence and serum-starved for 16–18 h. […] Thereafter, the cultures were washed with ice-cold 1X TBS for 2 min. Lysis Buffer (Cell Signaling Technology, Danvers, MA, USA) supplemented with 1 mM PMSF (phenylmethylsulphonyl fluoride) was added to the cultures and whole cell lysates were prepared.
Laemmli sample buffer (4X) was added to the whole cell lysates (20 µg) to a final concentration of 1X and heated at 100 °C for 5 min. The samples were immediately cooled on ice for 5 min and centrifuged at 9500 rpm for 2 min at RT. The samples and the Precision Plus Protein Standard (5 µL; Bio-Rad, Hercules, CA, USA) were loaded on 12% SDS polyacrylamide gels. Protein was separated using the Bio-Rad Mini Protean II Gel Electrophoresis System at 135 V. Meanwhile, 0.2 µm nitrocellulose membranes were pre-incubated in cold 1X Transfer Buffer (10 mM Tris/2.5 mM glycine/20% methanol) for at least 30 min. Next, the separated proteins were transferred at 100 V onto the pre-equilibrated nitrocellulose membranes for 1 h in Transfer Buffer, followed by blocking in 5% BSA/0.1% Tween 20/1X TBS for 30 min. The membranes were incubated overnight at 4 °C with the desired primary rabbit monoclonal antibody (p-Smad1/5(S463/465)/9(S465/467), Smad1 (D5907) XP®, p-Akt (Ser473) (D9E) XP®, or Akt (pan) (C67E7), p-SAPK/JNK (Thr183/Tyr185), SAPK/JNK, β-actin (Cell Signaling Technologies, Danvers, MA, USA)) or rabbit polyclonal antibody (phospho-PI3 Kinase p85 (Tyr458)/p55 (Tyr199) antibody (Cell Signaling Technologies, Danvers, MA, USA), p-p38 MAPK, p38 MAPK, p-ERK1, ERK1/2) (Abclonal, Woburn, MA, USA)) in Antibody Dilution Buffer (1% BSA/0.1% Tween 20/1X TBS) and then washed with 1X TBST (0.1% Tween 20/1X TBS) three times for 15 min. HRP-conjugated Goat Anti-Rabbit IgG secondary antibody (Santa Cruz Biotechnology, Inc., Dallas, TX, USA) in Antibody Dilution Buffer was added to the membranes for 1 h at RT followed by three 15-min washes with 1X TBST. Finally, the blots were developed using SuperSignal ™ West Femto HRP Substrate solutions (Thermo Scientific, Rockford, IL, USA) and analysed using the Omega Lum™ G Imaging System (San Francisco, CA, USA). Quantification of chemiluminescent signals was carried out using ImageJ (Image Processing and Analysis in Java 1.8.0_112).

p-Smad = test system: p-Smad; parameters: method as in PMID 30602563; details: 30-min stimulation assays; cited from earlier work

## BMP9: recombinant BMP family member
C2C12 cells [1]
  Effect on cell viability: Increases in cell viability

## c1cc(-c2cnn3cc(-c4ccc(OCCN5CCCCC5)cc4)cnc23)ccn1 [DM, Dorsomorphin, reference compound]
C2C12 cells [2]
  Effect of inhibitor on cell viability increases stimulated by SY-LB-35 and SY-LB-57: complete inhibition of the cell viability increases
[3]
  Effect of inhibitor on p-Smad increase induced by SY-LB-35 and SY-LB-57: completely prevented the increase in p-Smad levels

## Brc1ccc(CSc2nc3ccccc3o2)cc1 [sb4, reference compound]
p-Smad
  Increase in p-Smad levels over control: twofold

B1: BMP6: recombinant BMP family member (protein, UniProt P22004 375-513, looked up)
Bone morphogenetic protein 6: SASSRRRQQSRNRSTQSQDVARVSSASDYNSSELKTACRKHELYVSFQDLGWQDWIIAPKGYAANYCDGECSFPLNAHMNATNHAIVQTLVHLMNPEYVPKPCCAPTKLNAISVLYFDDNSNVILKKYRNMVVRACGCH
C2C12 cells [1]
  Effect on cell viability: Increases in cell viability

B2: BMP4: BMP ligand used as comparator in the literature study (protein, UniProt P12644 293-408, looked up)
Bone morphogenetic protein 4: SPKHHSQRARKKNKNCRRHSLYVDFSDVGWNDWIVAPPGYQAFYCHGDCPFPLADHLNSTNHAIVQTLVNSVNSSIPKACCVPTELSAISMLYLDEYDKVVLKNYQEMVVEGCGCR
p-Smad
  Increase in p-Smad levels over control: 11 fold

B3: BMP7: recombinant BMP family member (protein, UniProt P18075 293-431, looked up)
Bone morphogenetic protein 7: STGSKQRSQNRSKTPKNQEALRMANVAENSSSDQRQACKKHELYVSFRDLGWQDWIIAPEGYAAYYCEGECAFPLNSYMNATNHAIVQTLVHFINPETVPKPCCAPTQLNAISVLYFDDSSNVILKKYRNMVVRACGCH
C2C12 cells [1]
  Effect on cell viability: Increases in cell viability
